Measured values from ChEMBL document CHEMBL1157320, “Hepatoprotective sesquiterpene glycosides from Sarcandra glabra” (J Nat Prod, 2006).

What was measured:
[1] = Hepatoprotective activity in rat WB-F344 cells assessed as inhibition of D-galactosamine-induced toxicity at 0.1 mM by MTT method relative to control; type: functional
[2] = Cytotoxicity against rat WB-F344 cells assessed as cell survival rate at 0.1 mM by MTT method relative to control; type: cell-based; settings: read-out: Activity

Row | Structure (SMILES) | inhibition at 100 µM [1] [%] | viability at 100 µM [2] [%]
1 | C=C1[C@H]2C[C@H]2[C@]2(C)[C@H](O)[C@]3(O[C@@H]4O[C@H](CO)[C@@H](O)[C@H](O)[C@H]4O)OC(=O)C(C)=C3C[C@@H]12 | 26 | 45.5
2 | COC(=O)c1cc(OC)c2c(c1-c1c(CO)cc(OC)c3c1OCO3)OCO2 [BICYCLOL] | 27.4 | 46.6
3 | CC1=C2C[C@@H]3[C@@](C)(C=C2OC1=O)[C@@H]1C[C@@H]1[C@]3(O)CO[C@@H]1O[C@H](CO)[C@@H](O)[C@H](O)[C@H]1O [CHLORANOSIDE A] | 38.2 | 54.5
4 | C=C1CC[C@H](O[C@@H]2O[C@H](CO)[C@@H](O)[C@H](O)[C@H]2O)[C@]2(C)C[C@@H]3OC(=O)C(C)=C3C[C@@H]12 [SARCAGLABOSIDE A] | 28.7 | 47.5
5 | C=C1C=C[C@H](O[C@@H]2O[C@H](CO)[C@@H](O)[C@H](O)[C@H]2O)[C@]2(C)C[C@@H]3OC(=O)C(C)=C3C[C@@H]12 [SARCAGLABOSIDE B] | 65.9 | 74.9
6 | C=C[C@]1(C)C[C@@H]2OC(=O)C(C)=C2C[C@H]1C(=C)CO[C@@H]1O[C@H](CO)[C@@H](O)[C@H](O)[C@H]1O [SARCAGLABOSIDE C] | 36.1 | 53
7 | C=C[C@]1(C)C[C@@H]2OC(=O)C(C)=C2C[C@H]1C(=C)CO[C@@H]1O[C@H](CO[C@@H]2OC[C@](O)(CO)[C@H]2O)[C@@H](O)[C@H](O)[C@H]1O [SARCAGLABOSIDE D] | 27 | 46.3
8 | CC1=C2C/C=C(\CO[C@@H]3O[C@H](CO[C@@H]4OC[C@](O)(CO)[C@H]4O)[C@@H](O)[C@H](O)[C@H]3O)CC/C=C(\C)C[C@@H]2OC1=O [SARCAGLABOSIDE E] | 21.7 | 42.4
